Results published in patent publication US10905683B2, “Compositions and uses of amidine derivatives” (BIOCRYST PHARMACEUTICALS, INC., priority 2014, dated 2021).
In brackets after ≈: the same amount, converted by molar mass. Several values for one entry are separate records, joined by “and”; a condition that tells them apart may be missing. Equal values may be shown once.

What was measured:
[1] = Relative bioavailability crossover study, soft v. hard gelatin capsules and food effect; format: in vivo, human
Method: A single dose, randomized, 3-period crossover study was conducted to evaluate the relative bioavailability of the compound of Example 1 formulated as a soft gelatin capsule to the compound of Example 1 formulated as a hard gelatin capsule and to determine the effect of food on the pharmacokinetics of the compound of Example 1. The goals of this study were to ascertain the relative bioavailability and pharmacokinetics of the compound of Example 1 in soft gelatin capsules to hard gelatin capsules when administered following an overnight fast in healthy subjects. In addition, the study estimated the effect of a high-fat meal upon the pharmacokinetics of the compound of Example 1 following single dose administration of 400 mg of the compound of Example 1 in a soft gelatin capsules to healthy subjects. Hard and soft gelatin capsules were prepared as in Example 8 and 9, respectively, below.
The study was a single-dose, open-label, randomized, 3-way cross-over design. During each treatment period, eighteen subjects will receive a single dose of one of the following treatments in a randomized sequence:
Treatment A: BCX4161 400 mg as 4×100 mg hard gelatin capsules following an overnight fast
Treatment B: BCX4161 400 mg as 4×100 mg soft gelatin capsules following an overnight fast
Treatment C: BCX4161 400 mg as 4×100 mg soft gelatin capsules following a high fat meal […]

[2] = Absorption enhancement studies in the rat, intragastric dosing, plasma concentration
Method: Based on the solubility data that was reported previously, combinations of solvents were evaluated to study the effect of formulation composition on oral absorption.
Combinations of solvents and surfactants were evaluated in rat, dog and nonhuman primate models at levels appropriate for a potential human oral pharmaceutical product.
The early studies in rats used aqueous dosing solutions.
These formulations included a variety of solvents and co-solvents for evaluation to maximize absorption and form a physicochemically stable liquid. Unless otherwise indicated, the percentages are expressed by weight as a proportion of the total weight of all excipients present in the mixture (i.e. excluding the active ingredient).

[3] = octanol-PBS pH 7.4 partition coefficient (log D7.4) assay; format: physicochemical; details: octanol/0.01 M phosphate buffer pH 7.4, 24 hours, LC/MS/MS
Method: A 1 μL volume of a 1 mM stock solution of the compound in dimethyl sulfoxide (DMSO) was added to 500 μL 0.01 M phosphate buffer pH 7.4 (saturated with octanol) and 500 μL of octanol (saturated with 0.01 M phosphate buffer). […] Samples were prepared in triplicate.

[4] = Stability and photostability of formulations
Method: This is a standard practice in the pharmaceutical industry in order to accelerate any chemical reactions that may occur due to environmental conditions (temperature, oxygen, light). […] If the stability data from the stress studies indicates a potential stability challenge, then further studies are required to identify the stability issue and resolve it.
Initial stability studies were conducted under accelerated conditions. […] Several antioxidants were identified for study. These antioxidants are pharmaceutically acceptable for use in human oral dosage forms and are compatible with the gelatin composition in a soft gelatin capsule.
Stability studies were performed with formulations that were protected from light and formulations exposed to light.

[5] = Further solubility studies in solvents, mixtures and surfactants; format: physicochemical; details: thermodynamic from solid
Method: The solubility of the compound of Example 1 in a range of organic solvents, mixtures thereof, and some including surfactants, was measured. […] solubility assays were performed by the sequential addition of the compound of Example 1 to an appropriate organic solvent while stirring vigorously until a precipitate is formed. The resulting suspension is then shaken for 24 hours at room temperature, filtered and the resulting solution was analyzed by appropriate analytical method. Quantitation was performed by comparison of the concentrations of the resulting solution of the compound 1 to a single point calibration curve using a solution of the reference standard. The results are shown in Table 8, in which all percentages are expressed by weight of the total weight of excipients, i.e. excluding the active and the following abbreviations are used: […]

[6] = Aqueous solubility assay in buffer and simulated gastric/intestinal fluids
Method: The target concentration in each solution was 100 μM. […] The aqueous solutions were added (1 mL) to the dried samples and mixed at 400 rpm at 37° C. on an orbital plate shaker. […] Samples were prepared in triplicate. Testosterone and verapamil were used as reference compounds.

[7] = rat, intragastric 5 mg/Kg, aqueous dosing solution, individual rats 1-4

SMILES: C=Cc1cc(C(=O)Nc2ccc(C(=N)N)cc2)c(-c2ccc(C(=O)NCC3CC3)nc2C(=O)O)cc1OC [Example 1, 3-[2-(4-carbamimidoyl-phenylcarbamoyl)-5-methoxy-4-vinyl-phenyl]-6-(cyclopropylmethyl-carbamoyl)-pyridine-2-carboxylic acid]
- geometric mean Cmax, soft gelatin capsules as compared to hard gelatin capsules ([1]; 400 mg single dose, fasting): approximately 80%
- bioavailability ([1]; formulated in a soft gelatin capsule): good bioavailability
- concentration at 0 min ([2]; rat, in vivo, 5 mg/Kg, Plasma concentration, 0 min, intragastric 5 mg/Kg, aqueous dosing solution, individual rats 1-4): 0 ng/mL
- Plasma concentration, 0 min [2, 7]: 0 ng/mL
- Plasma concentration, 30 min [2, 7]: 108 ng/mL and <10 ng/mL and 188 ng/mL and 23 ng/mL
- Plasma concentration, 1 hr [2, 7]: 88 ng/mL and <10 ng/mL and 130 ng/mL and 30 ng/mL
- Plasma concentration, 2 hr [2, 7]: 123 ng/mL and <10 ng/mL and 87 ng/mL and 27 ng/mL
- Plasma concentration, 4 hr [2, 7]: 134 ng/mL and <10 ng/mL and 99 ng/mL and 24 ng/mL
- Plasma concentration, 8 hr [2, 7]: 48 ng/ml and <10 ng/ml (2×) and 30 ng/ml
- Gastrointestinal (GI) absorption ([2]; rats, aqueous dosing solutions): very low or zero
- logD at 24 h [3]: 1.9
- chemical stability under accelerated conditions ([4]; combined with candidate formulations, exposed to light, oxygen and elevated temperatures): underwent degradation
- photostability ([4]; exposed to ultraviolet (UV) or white (CW) light): demonstrated photodegradation
- solubility at 24 h ([5]; 2.5% SLS in 97.5% PEG400, organic solvent or mixture, 2.5% SLS in 97.5% PEG400, read-out: Example 1 Solubility After 24 hrs): 31.3 mg/mL (≈ 60.9 mM)
- solubility at 24 h ([5]; 2.5% SLS in 97.5% PEG600, organic solvent or mixture, 2.5% SLS in 97.5% PEG600, read-out: Example 1 Solubility After 24 hrs): 25.9 mg/mL (≈ 50.4 mM)
- solubility at 24 h ([5]; 2.5% SLS in 97.5% PG, organic solvent or mixture, 2.5% SLS in 97.5% PG, read-out: Example 1 Solubility After 24 hrs): > 100 mg/mL
- solubility at 24 h ([5]; 2.5% SLS/8% EtOH/10% PG in 79.5% PEG600, organic solvent or mixture, 2.5% SLS/8% EtOH/10% PG in 79.5% PEG600, read-out: Example 1 Solubility After 24 hrs): 57.3 mg/mL (≈ 112 mM)
- solubility at 24 h ([5]; 6% EtOH/15% glycerin/79% water containing 0.3% Tween80, aqueous with cosolvent or surfactant or cyclodextrin, 6% EtOH/15% glycerin/79% water containing 0.3% Tween80, read-out: Example 1 Solubility After 24 hrs): 0.3 mg/mL (≈ 0.584 mM)
- solubility at 24 h ([5]; 6% EtOH/15% glycerin/79% water, aqueous with cosolvent or surfactant or cyclodextrin, 6% EtOH/15% glycerin/79% water, read-out: Example 1 Solubility After 24 hrs): 0.07 mg/mL (≈ 0.136 mM)
- solubility at 24 h ([5]; 8% EtOH/10% PG in 82% PEG600, organic solvent or mixture, 8% EtOH/10% PG in 82% PEG600, read-out: Example 1 Solubility After 24 hrs): 61 mg/mL (≈ 119 mM)
- solubility at 24 h ([5]; 10% EtOH in 90% PEG400, organic solvent or mixture, 10% EtOH in 90% PEG400, read-out: Example 1 Solubility After 24 hrs): 61.4 mg/mL (≈ 120 mM)
- solubility at 24 h ([5]; 10% EtOH in 90% PEG600, organic solvent or mixture, 10% EtOH in 90% PEG600, read-out: Example 1 Solubility After 24 hrs): 61.4 mg/mL (≈ 120 mM)
- solubility at 24 h ([5]; 10% EtOH with 90% PG, organic solvent or mixture, 10% EtOH with 90% PG, read-out: Example 1 Solubility After 24 hrs): > 100 mg/mL
- solubility at 24 h ([5]; 20% PG in 80% PEG400, organic solvent or mixture, 20% PG in 80% PEG400, read-out: Example 1 Solubility After 24 hrs): 52.9 mg/mL (≈ 103 mM)
- solubility at 24 h ([5]; 20% PG in 80% PEG600, organic solvent or mixture, 20% PG in 80% PEG600, read-out: Example 1 Solubility After 24 hrs): 52.4 mg/mL (≈ 102 mM)
- solubility at 24 h ([5]; PG/PEG mixtures, organic solvent or mixture, some PG/PEG mixtures, read-out: solubility): 50 to 60 mg/mL (≈ 97.4 to 117 mM)
- solubility at 24 h ([5]; mixtures of 90% or more propylene glycol, organic solvent or mixture, some mixtures composed of 90% or more propylene glycol, read-out: solubility): > 100 mg/mL
- solubility at 24 h ([5]; propylene glycol, organic solvent or mixture, Propylene Glycol, read-out: Example 1 Solubility After 24 hrs): > 150 mg/mL
- solubility at 24 h ([5]; propylene glycol, organic solvent or mixture, propylene glycol (PG), read-out: solubility): 150 mg/mL (≈ 292 mM)
- solubility at 24 h ([6]; 37 °C, fassgf or other biorelevant, thermodynamic from solid, Observed Solubility, Target 100 μM, Fasted-State SGF, 24 hours): 109 µM
- solubility at 24 h ([6]; 37 °C, fassgf or other biorelevant, thermodynamic from solid, Observed Solubility, Target 100 μM, Fed-State SGF, 24 hours): 99 µM
- solubility at 24 h ([6]; 37 °C, fassif, thermodynamic from solid, Observed Solubility, Target 100 μM, Fasted-State SIF, 24 hours): 111 µM
- solubility at 24 h ([6]; 37 °C, fessif, thermodynamic from solid, Observed Solubility, Target 100 μM, Fed-State SIF, 24 hours): 119 µM
- solubility at 24 h ([6]; 37 °C, pH 7.4, aqueous buffer, thermodynamic from solid, Observed Solubility, Target 100 μM, 0.1M phosphate buffer pH 7.4, 37° C., 24 hours): 118 µM
- solubility at 24 h ([6]; solubility, aqueous/physiological fluids): 0.1 mg/mL
